In ChEMBL document CHEMBL2375312, “Novel and highly potent histamine H3 receptor ligands. Part 3: an alcohol function to improve the pharmacokinetic profile” (Bioorg Med Chem Lett, 2013):
One block for each compound: values may come before it.

Assays:
Histamine H3 receptor [1] = biological target: Histamine H3 receptor (Homo sapiens, UniProt Q9Y5N1); assay: Displacement of [125I]-iodoproxyfan from human recombinant histamine H3 receptor expressed in HEK293 cells after 1 hr by gamma counting analysis; format: cell-based
Histamine H3 receptor [2] = biological target: Histamine H3 receptor (Mus musculus, UniProt P58406); assay: Displacement of [125I]-iodoproxyfan from histamine H3 receptor in mouse brain cortex after 1 hr by gamma counting analysis; format: tissue-based
[3] = Half life in Swiss mouse plasma; format: ADME
[4] = Tmax in Swiss mouse plasma; format: ADME
[5] = Cmax in Swiss mouse brain; format: ADME, tissue-based
[6] = AUC in Swiss mouse brain; format: ADME, organism-based
[7] = Cmax in Swiss mouse plasma; format: ADME
[8] = AUC in Swiss mouse plasma; format: ADME
[9] = Half life in Swiss mouse brain; format: ADME, tissue-based
Mus musculus [10] = assay: Inverse agonist activity at histamine H3 receptor in po dosed Swiss mouse assessed as release of N-tele-methylhistamine in brain after 90 mins by enzyme-immunoassay; format: functional; conditions: 1.5 h
[11] = Tmax in Swiss mouse brain; format: ADME, tissue-based
[12] = Half life of the compound; format: physicochemical
[13] = AUC (0 to 8 hrs) in Swiss mouse brain at 10 mg/kg, po by […] analysis; format: ADME, organism-based; set-up: time < 8 hr, dose 10 mg/kg, route oral
[14] = AUC (0 to 8 hrs) in Swiss mouse plasma at 10 mg/kg, po by […] analysis; format: ADME, organism-based; set-up: time < 8 hr, dose 10 mg/kg, route oral
Cytochrome P450 3A4 = Cytochrome P450 3A4 (Homo sapiens, UniProt P08684); assay: Inhibition of human recombinant CYP3A4; format: ADME
[15] = biological target: Voltage-gated inwardly rectifying potassium channel KCNH2 (Homo sapiens, UniProt Q12809); assay: Binding affinity to human ERG
Cytochrome P450 2D6 = Cytochrome P450 2D6 (Homo sapiens, UniProt P10635); assay: Inhibition of human recombinant CYP2D6; format: ADME
Cytochrome P450 2C9 = Cytochrome P450 2C9 (Homo sapiens, UniProt P11712); assay: Inhibition of human recombinant CYP2C9; format: ADME
Mus musculus [16] = assay: Inverse agonist activity at histamine H3 receptor in po dosed Swiss mouse assessed as release of N-tele-methylhistamine in brain after 90 mins by enzyme-immunoassay relative to ciproxifan; format: functional

Chain of Histamine H3 receptor (Homo sapiens, UniProt Q9Y5N1) (Q9Y5N1 whole entry): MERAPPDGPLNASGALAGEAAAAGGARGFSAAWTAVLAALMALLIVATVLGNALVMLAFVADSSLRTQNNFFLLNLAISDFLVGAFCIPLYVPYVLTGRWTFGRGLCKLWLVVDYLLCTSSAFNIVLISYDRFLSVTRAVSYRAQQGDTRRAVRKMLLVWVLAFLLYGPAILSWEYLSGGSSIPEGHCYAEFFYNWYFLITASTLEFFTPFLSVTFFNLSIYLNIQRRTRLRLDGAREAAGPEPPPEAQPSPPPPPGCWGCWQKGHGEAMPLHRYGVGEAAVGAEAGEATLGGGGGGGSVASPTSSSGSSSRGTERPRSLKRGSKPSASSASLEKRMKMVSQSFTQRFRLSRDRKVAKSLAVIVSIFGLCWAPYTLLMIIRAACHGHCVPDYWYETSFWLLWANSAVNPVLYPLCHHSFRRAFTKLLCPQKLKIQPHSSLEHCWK
Chain of Histamine H3 receptor (Mus musculus, UniProt P58406) (P58406 whole entry): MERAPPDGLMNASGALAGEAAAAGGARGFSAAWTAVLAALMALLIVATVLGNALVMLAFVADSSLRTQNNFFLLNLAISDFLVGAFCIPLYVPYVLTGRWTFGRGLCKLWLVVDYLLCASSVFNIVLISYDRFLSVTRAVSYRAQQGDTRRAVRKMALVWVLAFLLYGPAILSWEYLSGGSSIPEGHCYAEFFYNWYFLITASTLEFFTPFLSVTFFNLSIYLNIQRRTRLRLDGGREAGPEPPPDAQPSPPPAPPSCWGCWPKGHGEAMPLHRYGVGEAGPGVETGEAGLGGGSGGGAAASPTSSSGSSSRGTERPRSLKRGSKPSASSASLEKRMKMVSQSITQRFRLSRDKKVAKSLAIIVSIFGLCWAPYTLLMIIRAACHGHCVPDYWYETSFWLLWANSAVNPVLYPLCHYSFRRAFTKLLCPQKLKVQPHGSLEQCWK
Chain of Voltage-gated inwardly rectifying potassium channel KCNH2 (Q12809 whole entry): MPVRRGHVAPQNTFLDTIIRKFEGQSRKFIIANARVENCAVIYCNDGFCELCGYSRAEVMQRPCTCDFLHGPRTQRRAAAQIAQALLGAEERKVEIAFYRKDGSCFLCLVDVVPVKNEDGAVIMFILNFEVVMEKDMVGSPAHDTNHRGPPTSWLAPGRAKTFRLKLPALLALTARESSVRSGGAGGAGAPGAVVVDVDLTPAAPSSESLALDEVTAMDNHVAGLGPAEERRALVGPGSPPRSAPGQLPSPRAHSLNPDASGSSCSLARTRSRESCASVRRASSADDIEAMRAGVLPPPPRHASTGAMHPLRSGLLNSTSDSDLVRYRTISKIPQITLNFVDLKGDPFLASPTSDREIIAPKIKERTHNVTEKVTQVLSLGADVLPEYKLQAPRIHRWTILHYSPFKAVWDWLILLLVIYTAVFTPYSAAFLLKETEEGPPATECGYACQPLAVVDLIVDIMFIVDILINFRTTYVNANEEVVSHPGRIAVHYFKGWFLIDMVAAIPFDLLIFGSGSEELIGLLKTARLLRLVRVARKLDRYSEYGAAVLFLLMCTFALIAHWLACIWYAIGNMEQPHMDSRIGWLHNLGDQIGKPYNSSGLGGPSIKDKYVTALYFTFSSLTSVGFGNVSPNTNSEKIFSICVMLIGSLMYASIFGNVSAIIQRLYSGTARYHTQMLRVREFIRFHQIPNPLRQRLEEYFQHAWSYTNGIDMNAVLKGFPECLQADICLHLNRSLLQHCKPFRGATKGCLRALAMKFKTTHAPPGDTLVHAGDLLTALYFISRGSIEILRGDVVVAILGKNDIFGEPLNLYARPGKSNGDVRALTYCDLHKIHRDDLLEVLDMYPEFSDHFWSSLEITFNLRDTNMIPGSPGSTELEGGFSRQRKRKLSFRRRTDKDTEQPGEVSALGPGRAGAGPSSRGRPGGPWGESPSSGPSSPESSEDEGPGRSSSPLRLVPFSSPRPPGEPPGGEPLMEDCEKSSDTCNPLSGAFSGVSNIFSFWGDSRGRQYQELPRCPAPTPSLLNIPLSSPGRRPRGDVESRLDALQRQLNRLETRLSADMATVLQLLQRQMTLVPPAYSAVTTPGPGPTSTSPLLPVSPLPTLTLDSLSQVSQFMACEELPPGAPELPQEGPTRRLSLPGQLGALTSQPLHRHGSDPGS
Chain of Cytochrome P450 3A4 (P08684 whole entry): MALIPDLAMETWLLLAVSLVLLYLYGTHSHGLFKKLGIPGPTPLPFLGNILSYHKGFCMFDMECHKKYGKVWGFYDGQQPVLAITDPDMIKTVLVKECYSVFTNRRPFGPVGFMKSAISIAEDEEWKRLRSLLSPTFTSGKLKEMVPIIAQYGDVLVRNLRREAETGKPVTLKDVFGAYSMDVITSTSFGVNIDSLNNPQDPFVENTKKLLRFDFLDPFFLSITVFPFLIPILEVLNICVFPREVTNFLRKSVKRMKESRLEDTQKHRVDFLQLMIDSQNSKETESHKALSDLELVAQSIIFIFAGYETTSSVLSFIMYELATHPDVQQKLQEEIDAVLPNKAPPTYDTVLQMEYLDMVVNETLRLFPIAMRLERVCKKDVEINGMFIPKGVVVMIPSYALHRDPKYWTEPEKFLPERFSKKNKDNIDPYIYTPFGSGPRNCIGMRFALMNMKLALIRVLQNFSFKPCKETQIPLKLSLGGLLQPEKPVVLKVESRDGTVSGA
Chain of Cytochrome P450 2D6 (P10635 whole entry): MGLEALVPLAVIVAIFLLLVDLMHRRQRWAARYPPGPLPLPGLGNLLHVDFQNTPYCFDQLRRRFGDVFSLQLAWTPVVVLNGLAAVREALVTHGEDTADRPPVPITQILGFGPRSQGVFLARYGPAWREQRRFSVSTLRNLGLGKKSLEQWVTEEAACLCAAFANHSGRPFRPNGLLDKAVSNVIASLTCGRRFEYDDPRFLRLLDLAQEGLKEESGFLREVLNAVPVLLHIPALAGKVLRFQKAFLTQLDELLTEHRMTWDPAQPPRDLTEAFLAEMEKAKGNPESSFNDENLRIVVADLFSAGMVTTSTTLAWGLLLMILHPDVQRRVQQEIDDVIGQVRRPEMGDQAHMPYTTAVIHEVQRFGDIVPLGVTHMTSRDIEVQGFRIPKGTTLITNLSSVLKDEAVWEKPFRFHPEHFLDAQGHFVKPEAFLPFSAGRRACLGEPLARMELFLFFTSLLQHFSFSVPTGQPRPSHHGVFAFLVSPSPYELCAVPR
Chain of Cytochrome P450 2C9 (P11712 whole entry): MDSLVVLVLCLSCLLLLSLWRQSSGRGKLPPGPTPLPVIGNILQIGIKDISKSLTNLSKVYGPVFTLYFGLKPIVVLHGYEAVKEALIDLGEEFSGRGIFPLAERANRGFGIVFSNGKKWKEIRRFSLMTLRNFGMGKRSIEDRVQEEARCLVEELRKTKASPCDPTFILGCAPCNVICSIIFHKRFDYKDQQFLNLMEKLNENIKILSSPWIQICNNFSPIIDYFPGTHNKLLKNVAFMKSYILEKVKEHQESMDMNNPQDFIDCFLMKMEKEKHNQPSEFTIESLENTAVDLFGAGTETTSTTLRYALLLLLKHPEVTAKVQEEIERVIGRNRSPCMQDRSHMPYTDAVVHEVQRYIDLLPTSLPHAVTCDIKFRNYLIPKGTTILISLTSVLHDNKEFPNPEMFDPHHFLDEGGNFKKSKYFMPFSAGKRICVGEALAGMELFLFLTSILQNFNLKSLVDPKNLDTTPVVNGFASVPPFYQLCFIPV

Structure (SMILES): c1cc([C@H]2CC[C@H](N3CCOCC3)CC2)ccc1OCCCN1CCCCC1
half-life [3]: 5 h
Tmax [4]: 1.5 h
Cmax [5]: 2380 ng/mL
AUC [6]: 15600 ng·h/mL
Cmax [7]: 357 ng/mL
AUC [8]: 2110 ng·h/mL
half-life [9]: > 10 h
ED50 (Mus musculus [10]): 1.3 mg/kg
Tmax [11]: 1.5 h

Structure (SMILES): CC(C)(O)CCc1ccc(OCCCN2CCCCC2)cc1
Ki (Histamine H3 receptor [1]): 4 nM

Structure (SMILES): OCCc1ccc(OCCCN2CCCCC2)cc1
Ki (Histamine H3 receptor [1]): 32 nM

Structure (SMILES): CCC(O)(CC)c1ccc(OCCCN2CCCCC2)cc1
Ki (Histamine H3 receptor [1]): 1.4 nM
Ki (Histamine H3 receptor [2]): 14 nM

Structure (SMILES): C=CCC(O)c1ccc(OCCCN2CCCCC2)cc1 (stereo unspecified)
Ki (Histamine H3 receptor [1]): 6.9 nM

Structure (SMILES): O[C@H]1CC[C@H](c2ccc(OCCCN3CCCCC3)cc2)CC1
AUC(0-t) at 8 h [13]: 18000 ng·h/mL
Ki (Histamine H3 receptor [1]): 2.6 nM
AUC(0-t) at 8 h [14]: 4980 ng·h/mL
Ki (Histamine H3 receptor [2]): 6.9 nM
IC50 (Cytochrome P450 3A4): 30300 nM
Ki [15]: 5800 nM
IC50 (Cytochrome P450 2D6): > 100000 nM
IC50 (Cytochrome P450 2C9): 40300 nM
ED50 (Mus musculus [10]): 0.3 mg/kg
Ratio (Mus musculus [16]): 1

Structure (SMILES): OC1(c2ccc(OCCCN3CCCCC3)cc2)CCCC1
Ki (Histamine H3 receptor [2]): 7.6 nM

Structure (SMILES): OC1(c2ccc(OCCCN3CCCCC3)cc2)CCOCC1
Ki (Histamine H3 receptor [1]): 4.1 nM

Structure (SMILES): OCc1ccc(OCCCN2CCCCC2)cc1
Ki (Histamine H3 receptor [1]): 22.7 nM

Structure (SMILES): C=CCC(O)(CC=C)c1ccc(OCCCN2CCCCC2)cc1
Ki (Histamine H3 receptor [1]): 0.54 nM
Ki (Histamine H3 receptor [2]): 4.3 nM

Structure (SMILES): OC(c1ccc(OCCCN2CCCCC2)cc1)C1CCOCC1 (stereo unspecified)
Ki (Histamine H3 receptor [1]): 13 nM

Structure (SMILES): OC1CCN([C@H]2CC[C@H](c3ccc(OCCCN4CCCCC4)cc3)CC2)CC1 (mixture of isomers)
half-life [3]: 6 h
Tmax [4]: 1.5 h
Cmax [5]: 215 ng/mL
AUC [6]: 1520 ng·h/mL
Cmax [7]: 399 ng/mL
AUC [8]: 1520 ng·h/mL
half-life [9]: > 10 h
Tmax [11]: 3 h

Other lines, results leading:

Ki (Histamine H3 receptor [1]): 3.9 nM
Structure (SMILES): OC1(c2ccc(OCCCN3CCCCC3)cc2)CCCCC1

Ki (Histamine H3 receptor [1]): 1.9 nM
Ki (Histamine H3 receptor [2]): 6.3 nM
Structure (SMILES): OC1CCC(Cc2ccc(OCCCN3CCCCC3)cc2)CC1 (stereo unspecified)

Ki (Histamine H3 receptor [1]): 6.8 nM
Structure (SMILES): CC(C)(O)c1ccc(OCCCN2CCCCC2)cc1

Ki (Histamine H3 receptor [1]): 18 nM
Structure (SMILES): OC1(c2ccc(OCCCN3CCCCC3)cc2)CCC1

Ki (Histamine H3 receptor [1]): 15 nM
Structure (SMILES): OCC#Cc1ccc(OCCCN2CCCCC2)cc1

Ki (Histamine H3 receptor [1]): 8.6 nM
Ki (Histamine H3 receptor [2]): 18 nM
Structure (SMILES): C=CC(O)c1ccc(OCCCN2CCCCC2)cc1 (stereo unspecified)

Ki (Histamine H3 receptor [2]): 2.5 nM
Structure (SMILES): CCCC(O)(CCC)c1ccc(OCCCN2CCCCC2)cc1

half-life [12]: 50 h
Structure (SMILES): COCCCS(=O)(=O)c1ccc(-c2ccc(CCN3CCC[C@H]3C)cc2)cc1

Ki (Histamine H3 receptor [1]): 3.3 nM
Structure (SMILES): CC(O)CCc1ccc(OCCCN2CCCCC2)cc1 (stereo unspecified)

Ki (Histamine H3 receptor [1]): 19 nM
Structure (SMILES): OCCC#Cc1ccc(OCCCN2CCCCC2)cc1

Ki (Histamine H3 receptor [1]): 2.9 nM
Structure (SMILES): OC(c1ccc(OCCCN2CCCCC2)cc1)C1CCCCC1 (stereo unspecified)
